These results are taken from US11560371B2, “Cereblon binding compounds, compositions thereof, and methods of treatment therewith” (Celgene Corporation, priority 2020, dated 2023).

Structures can show the parent of a compound that is named as a salt.

This test has as its target T1, AR (Homo sapiens, UniProt P10275).
T1 construct: endogenous in cells; host or cells: VCaP cells
T1 sequence (P10275 1-920): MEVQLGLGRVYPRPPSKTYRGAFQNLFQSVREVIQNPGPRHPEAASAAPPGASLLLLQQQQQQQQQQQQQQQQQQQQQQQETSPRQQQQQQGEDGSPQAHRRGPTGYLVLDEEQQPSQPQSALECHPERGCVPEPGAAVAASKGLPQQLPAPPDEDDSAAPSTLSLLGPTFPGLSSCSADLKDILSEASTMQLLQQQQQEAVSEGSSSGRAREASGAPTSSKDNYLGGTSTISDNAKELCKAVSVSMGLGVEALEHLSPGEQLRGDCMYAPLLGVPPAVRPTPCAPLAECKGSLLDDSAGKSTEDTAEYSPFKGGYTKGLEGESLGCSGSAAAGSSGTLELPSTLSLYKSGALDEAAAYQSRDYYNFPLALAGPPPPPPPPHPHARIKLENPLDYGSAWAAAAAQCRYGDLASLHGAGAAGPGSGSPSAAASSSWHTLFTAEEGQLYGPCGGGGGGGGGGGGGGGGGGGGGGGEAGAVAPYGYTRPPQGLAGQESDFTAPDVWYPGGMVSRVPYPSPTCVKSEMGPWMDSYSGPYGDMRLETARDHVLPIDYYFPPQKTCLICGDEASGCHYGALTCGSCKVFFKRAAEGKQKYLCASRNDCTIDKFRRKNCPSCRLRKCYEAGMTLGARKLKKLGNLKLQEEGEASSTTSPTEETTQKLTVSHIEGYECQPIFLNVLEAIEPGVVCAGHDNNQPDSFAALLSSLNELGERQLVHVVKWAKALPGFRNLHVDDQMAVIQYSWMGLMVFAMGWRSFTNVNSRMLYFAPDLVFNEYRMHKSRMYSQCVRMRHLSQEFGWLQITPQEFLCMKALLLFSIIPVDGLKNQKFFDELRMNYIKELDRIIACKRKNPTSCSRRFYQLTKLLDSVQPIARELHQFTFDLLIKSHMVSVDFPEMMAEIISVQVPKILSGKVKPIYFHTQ
The experiment in a line: VCAP AR Degradation Assay. It is filed as cell-based. The conditions noted are these: VCaP cells, 24 h, AR ELISA; for DC50: concentration of compound when AR level = 50% of DMSO control (50% AR degradation); for Y: lowest measured AR level normalized to DMSO control (AR degradation efficiency). The method, then: VCAP AR Degradation Assay. Test compounds were pre-dispensed into a Corning CellBind 96-well clear bottom plate (Cat #3300) using an acoustic dispenser to make a 10-point concentration series at 1:3 dilution for each compound. The final top concentration of each compound was 5 μM. DMSO at a final concentration of 0.1% was used as a control. VCaP cells cultured in DMEM with 8% fetal bovine serum (FBS) were seeded at 50K cells per well in a 200 μL volume into the compound plate and incubated at 37° C. in a CO2 incubator for 24 h. The medium was carefully removed from the cells and the plate was placed on ice. […] ice-cold 1× cell lysis buffer from Cell Signaling Technologies (Cat #9803) was added to each well of the cells and the plate was incubated at 4° C. on a shaker for 1 h. Fifteen μL of cell lysate was used for AR ELISA detection using a PathScan Total Sandwich AR ELISA kit (Cell Signaling Technology, Cat #12580). AR levels in compound-treated wells were normalized to that of DMSO control and expressed as percent of control (PoC) (y). A Four Parameter Logistic Model (Sigmoidal Dose-Response Model) was used to determine the compound's DC50, and EC50, using the following equation: y=(A+((B−A)/(1+((C/x)^D)))) • A=YMin (lowest AR level normalized to DMSO control in response to compound treatment, as determined by curve fit) • B=YMax (maximum AR level as determined by curve fit) • C=EC50 • D=Hill Slope • x=compound concentration • EC50=the concentration of compound when y=[…] • DC50=the concentration of the compound when y=50% of DMSO control (50% AR degradation) • y=AR protein level normalized to DMSO control
The lowest measured AR level normalized to DMSO control in response to compound treatment, termed Y value, was used to characterize the compound-mediated AR degradation efficiency.

With `C[C@@H]1CN(CCCC[C@H]2CC[C@H](N3C(=S)N(c4ccc(C#N)c(C(F)(F)F)c4)C(=O)C3(C)C)CC2)C[C@H](C)N1CC(=O)Nc1cccc2c(N3CCC(=O)NC3=O)nn(C)c12` [Cmpd 17, 2-((2R,6S)-4-(4-(trans-4-(3-(4-Cyano-3-(trifluoromethyl)phenyl)-5,5-dimethyl-4-oxo-2-thioxoimidazolidin-1-yl)cyclohexyl)butyl)-2,6-dimethylpiperazin-1-yl)-N-(3-(2,4-dioxotetrahydropyrimidin-1(2H)-yl)-1-methyl-1H-indazol-7-yl)acetamide hydrochloride], the DC50 fell in the range of 2 to 10 nM and the Y entry is on record as “** (20%<Y≤%)”.
`C[C@@H]1CN(CCCO[C@H]2CC[C@H](N3C(=S)N(c4ccc(C#N)c(Cl)c4)C(=O)C3(C)C)CC2)C[C@H](C)N1CC(=O)Nc1cccc2c(N3CCC(=O)NC3=O)nn(C)c12` [Cmpd 9, 2-((2R,6S)-4-(3-((trans-4-(3-(3-Chloro-4-cyanophenyl)-5,5-dimethyl-4-oxo-2-thioxoimidazolidin-1-yl)cyclohexyl)oxy)propyl)-2,6-dimethylpiperazin-1-yl)-N-(3-(2,4-dioxotetrahydropyrimidin-1(2H)-yl)-1-methyl-1H-indazol-7-yl)acetamide hydrochloride]: the DC50 was at most 2 nM and the Y entry is given as “* (0<Y≤20%)”.
For `Cn1nc(N2CCC(=O)NC2=O)c2cccc(NC(=O)CN3CCN(CCO[C@H]4CC[C@H](N5C(=S)N(c6cnc(C#N)c(C(F)(F)F)c6)C(=O)C5(C)C)CC4)C[C@@H]3C(F)(F)F)c21` [Cmpd 27, 2-((R)-4-(2-(((trans)-4-(3-(6-Cyano-5-(trifluoromethyl)pyridin-3-yl)-5,5-dimethyl-4-oxo-2-thioxoimidazolidin-1-yl)cyclohexyl)oxy)ethyl)-2-(trifluoromethyl)piperazin-1-yl)-N-(3-(2,4-dioxotetrahydropyrimidin-1(2H)-yl)-1-methyl-1H-indazol-7-yl)acetamide] the same measures were at most 2 nM and “** (20%<Y≤%)”.
The like results for `C[C@@H]1CN(CCO[C@H]2CC[C@H](N3C(=S)N(c4ccc(C#N)c(C(F)(F)F)c4)C(=O)C3(C)C)CC2)C[C@H](C)N1CCC(=O)Nc1cccc2c(N3CCC(=O)NC3=O)nn(C)c12` [Cmpd 5, 3-((2R,6S)-4-(2-((trans-4-(3-(4-Cyano-3-(trifluoromethyl)phenyl)-5,5-dimethyl-4-oxo-2-thioxoimidazolidin-1-yl)cyclohexyl)oxy)ethyl)-2,6-dimethylpiperazin-1-yl)-N-(3-(2,4-dioxotetrahydropyrimidin-1(2H)-yl)-1-methyl-1H-indazol-7-yl)propanamide] were, in that order, 2 to 10 nM and “*** (30%<Y<60%)”.
The like results for `Cn1nc(N2CCC(=O)NC2=O)c2cccc(NC(=O)CN3CCC(CCO[C@H]4CC[C@H](N5C(=S)N(c6cnc(C#N)c(C(F)(F)F)c6)C(=O)C5(C)C)CC4)C(F)(F)C3)c21` (stereo partly drawn) [Cmpd 36, 2-(4-(2-(((trans)-4-(3-(6-Cyano-5-(trifluoromethyl)pyridin-3-yl)-5,5-dimethyl-4-oxo-2-thioxoimidazolidin-1-yl)cyclohexyl)oxy)ethyl)-3,3-difluoropiperidin-1-yl)-N-(3-(2,4-dioxotetrahydropyrimidin-1(2H)-yl)-1-methyl-1H-indazol-7-yl)acetamide] were, in that order, at most 2 nM and “* (0<Y≤20%)”.
On to `C[C@@H]1CN(CCC[C@H]2CC[C@H](N3C(=S)N(c4ccc(C#N)c(Cl)c4)C(=O)C3(C)C)CC2)C[C@H](C)N1CC(=O)Nc1cccc2c(N3CCC(=O)NC3=O)nn(C)c12` [Cmpd 11, 2-((2S,6R)-4-(3-(trans-4-(3-(3-Chloro-4-cyanophenyl)-5,5-dimethyl-4-oxo-2-thioxoimidazolidin-1-yl)cyclohexyl)propyl)-2,6-dimethylpiperazin-1-yl)-N-(3-(2,4-dioxotetrahydropyrimidin-1(2H)-yl)-1-methyl-1H-indazol-7-yl)acetamide hydrochloride], for which the DC50 was 10 to 100 nM and the Y entry was “*** (30%<Y<60%)”.
As to `C[C@@H]1C[C@H](CCO[C@H]2CC[C@H](N3C(=S)N(c4cnc(C#N)c(C(F)(F)F)c4)C(=O)C3(C)C)CC2)C[C@H](C)N1CC(=O)Nc1cccc2c(N3CCC(=O)NC3=O)nn(C)c12` [Cmpd 28, 2-((2R,4r,6S)-4-(2-(((trans)-4-(3-(6-Cyano-5-(trifluoromethyl)pyridin-3-yl)-5,5-dimethyl-4-oxo-2-thioxoimidazolidin-1-yl)cyclohexyl)oxy)ethyl)-2,6-dimethylpiperidin-1-yl)-N-(3-(2,4-dioxotetrahydropyrimidin-1(2H)-yl)-1-methyl-1H-indazol-7-yl)acetamide], the DC50 is at most 2 nM and the Y result is recorded as “* (0<Y≤20%)”.
The like results for `Cn1nc(N2CCC(=O)NC2=O)c2cccc(NC(=O)CN3CCC(CCO[C@H]4CC[C@H](N5C(=S)N(c6ccc(C#N)c(C(F)(F)F)c6)C(=O)C5(C)C)CC4)C(F)(F)C3)c21` (stereo partly drawn) [Cmpd 35, 2-(4-(2-(((trans)-4-(3-(4-Cyano-3-(trifluoromethyl)phenyl)-5,5-dimethyl-4-oxo-2-thioxoimidazolidin-1-yl)cyclohexyl)oxy)ethyl)-3,3-difluoropiperidin-1-yl)-N-(3-(2,4-dioxotetrahydropyrimidin-1(2H)-yl)-1-methyl-1H-indazol-7-yl)acetamide] were, in that order, at most 2 nM and “* (0<Y≤20%)”.
For `C[C@@H]1CN(CCC[C@H]2CC[C@H](N3C(=S)N(c4cnc(C#N)c(Cl)c4)C(=O)C3(C)C)CC2)C[C@H](C)N1CC(=O)Nc1cccc2c(N3CCC(=O)NC3=O)nn(C)c12` [Cmpd 12, 2-((2R,6S)-4-(3-(trans-4-(3-(5-Chloro-6-cyanopyridin-3-yl)-5,5-dimethyl-4-oxo-2-thioxoimidazolidin-1-yl)cyclohexyl)propyl)-2,6-dimethylpiperazin-1-yl)-N-(3-(2,4-dioxotetrahydropyrimidin-1(2H)-yl)-1-methyl-1H-indazol-7-yl)acetamide hydrochloride] the same measures were 2 to 10 nM and “** (20%<Y≤%)”.
The like results for `Cn1nc(N2CCC(=O)NC2=O)c2cccc(NC(=O)CN3CCN(CCO[C@H]4CC[C@H](N5C(=S)N(c6ccc(C#N)c(C(F)(F)F)c6)C(=O)C5(C)C)CC4)C[C@@H]3C(F)(F)F)c21` [Cmpd 20, 2-((R)-4-(2-((trans-4-(3-(4-Cyano-3-(trifluoromethyl)phenyl)-5,5-dimethyl-4-oxo-2-thioxoimidazolidin-1-yl)cyclohexyl)oxy)ethyl)-2-(trifluoromethyl)piperazin-1-yl)-N-(3-(2,4-dioxotetrahydropyrimidin-1(2H)-yl)-1-methyl-1H-indazol-7-yl)acetamide hydrochloride] were, in that order, at most 2 nM and “** (20%<Y≤%)”.
On to `C[C@@H]1CN(CCO[C@H]2CC[C@H](N3C(=S)N(c4cnc(C#N)c(C(F)(F)F)c4)C(=O)C3(C)C)CC2)C[C@H](C)N1CC(=O)Nc1cccc2c(N3CCC(=O)NC3=O)nn(C)c12` [Cmpd 4, 2-((2R,6S)-4-(2-((trans-4-(3-(6-Cyano-5-(trifluoromethyl)pyridin-3-yl)-5,5-dimethyl-4-oxo-2-thioxoimidazolidin-1-yl)cyclohexyl)oxy)ethyl)-2,6-dimethylpiperazin-1-yl)-N-(3-(2,4-dioxotetrahydropyrimidin-1(2H)-yl)-1-methyl-1H-indazol-7-yl)acetamide hydrochloride], for which the DC50 was in the range of 2 to 10 nM and the Y entry is recorded as “** (20%<Y≤%)”.
